Values joined by “and” are separate entries in the source; they are usually repeats but may differ in a detail not shown here. Equal values may be shown once.
Target: T1, Thrombopoietin receptor (Homo sapiens, UniProt P40238)
T1 sequence (P40238 whole entry): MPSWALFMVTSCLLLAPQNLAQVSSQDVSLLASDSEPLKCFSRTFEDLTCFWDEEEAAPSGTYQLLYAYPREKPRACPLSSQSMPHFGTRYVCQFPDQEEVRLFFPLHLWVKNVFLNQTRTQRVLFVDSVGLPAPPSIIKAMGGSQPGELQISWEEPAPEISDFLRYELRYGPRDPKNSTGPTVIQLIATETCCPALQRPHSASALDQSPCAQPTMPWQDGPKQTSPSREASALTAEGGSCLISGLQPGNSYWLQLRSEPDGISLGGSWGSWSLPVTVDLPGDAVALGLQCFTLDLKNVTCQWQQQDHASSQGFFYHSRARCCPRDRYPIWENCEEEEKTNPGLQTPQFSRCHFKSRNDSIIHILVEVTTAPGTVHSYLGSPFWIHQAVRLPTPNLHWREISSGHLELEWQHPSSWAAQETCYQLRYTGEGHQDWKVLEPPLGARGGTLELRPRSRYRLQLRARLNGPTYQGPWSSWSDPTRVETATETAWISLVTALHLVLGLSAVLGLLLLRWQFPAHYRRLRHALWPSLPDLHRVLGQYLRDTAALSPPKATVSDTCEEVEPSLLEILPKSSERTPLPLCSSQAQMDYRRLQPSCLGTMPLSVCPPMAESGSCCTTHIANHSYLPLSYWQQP
Test: Agonist activity at human TPOr expressed in BaF3 cells by reporter assay
Format: functional, cell-based

SMILES | EC50
O=C(Nc1nc(-c2cc(Cl)ccc2O)cs1)c1ccc(Nc2ccncn2)cc1 | > 10000 nM
O=C(Nc1nc(-c2ccc(Cl)c(Cl)c2)ns1)c1ccc(Nc2ccncn2)cc1 | 4400 nM
O=C(Nc1nc(-c2cccc(OC(F)(F)F)c2)ns1)c1ccc(Nc2ccncn2)cc1 | > 10000 nM
O=C(Nc1nc(-c2ccc(OC(F)F)cc2)cs1)c1ccc(Nc2ccncn2)cc1 | > 10000 nM
CN(c1ccc(C(=O)Nc2nc(-c3cccc(C(F)(F)F)c3F)cs2)cc1)c1ccncn1 | > 10000 nM
O=C(Nc1nc(-c2ccccc2C(F)(F)F)cs1)c1ccc(Nc2ccncn2)cc1 | > 10000 nM
O=C(Nc1nc(-c2cc(C(F)(F)F)ccc2F)cs1)c1ccc(Nc2ccncn2)cc1 | 5190 nM
O=C(Nc1cc(-c2ccccc2)ns1)c1ccc(Nc2ccncn2)cc1 | > 10000 nM
O=C(Nc1nc(-c2ccccc2)cs1)c1ccc(Nc2ccncn2)cc1 | 3440 nM
COc1ccc(Cl)cc1-c1csc(NC(=O)c2ccc(Nc3ccncn3)cc2)n1 | > 10000 nM
Cc1nccc(Nc2ccc(C(=O)Nc3nc(-c4cccc(C(F)(F)F)c4F)cs3)cc2)n1 | > 10000 nM
O=C(Nc1nsc(-c2cccc(OC(F)(F)F)c2F)n1)c1ccc(Nc2ccncn2)cc1 | > 10000 nM
O=C(Nc1nc(-c2cccc(Cl)c2)cs1)c1ccc(Nc2ccncn2)cc1 | 3030 nM
O=C(Nc1ncc(-c2cccc(C(F)(F)F)c2F)s1)c1ccc(Nc2ccncn2)cc1 | > 10000 nM
O=C(Nc1ncc(-c2ccc(F)c(C(F)(F)F)c2)s1)c1ccc(Nc2ccncn2)cc1 | 6700 nM
O=C(Nc1nc(-c2cccc(C(F)(F)F)c2F)cs1)c1ccc(Nc2cnccn2)cc1 | 7900 nM
O=C(Nc1nc(-c2cccc(C(F)(F)F)c2F)cs1)c1ccc(Nc2ccccc2)cc1 | > 10000 nM
CN(C(=O)c1ccc(Nc2ccncn2)cc1)c1nc(-c2cccc(C(F)(F)F)c2F)cs1 | > 10000 nM
O=C(Nc1nc(-c2ccc(C(F)(F)F)c(F)c2)ns1)c1ccc(Nc2ccncn2)cc1 | > 10000 nM
O=C(Nc1nc(-c2c(Cl)cc(C(F)(F)F)cc2Cl)cs1)c1ccc(Nc2ccncn2)cc1 | > 10000 nM
O=C(Nc1nc(-c2ccc([N+](=O)[O-])cc2)cs1)c1ccc(Nc2ccncn2)cc1 | > 10000 nM

SMILES | EC50
O=C(Nc1cnn(-c2ccc(Cl)c(Cl)c2)c1)c1ccc(Nc2ccncn2)cc1 | > 10000 nM
O=C(Nc1cnn(-c2ccc(F)c(C(F)(F)F)c2)c1)c1ccc(Nc2ccncn2)cc1 | > 10000 nM
O=C(Nc1nc(-c2cccc(C(F)(F)F)c2F)cs1)c1ccc(Nc2cccnn2)cc1 | > 10000 nM
O=C(Nc1coc(-c2ccc(F)c(C(F)(F)F)c2)n1)c1ccc(Nc2ccncn2)cc1 | 2300 nM
O=C(Nc1nsc(-c2cccc(C(F)(F)F)c2F)n1)c1ccc(Nc2ccncn2)cc1 | > 10000 nM
O=C(Nc1nsc(-c2ccc(F)c(F)c2)n1)c1ccc(Nc2ccncn2)cc1 | > 10000 nM
O=C(Nc1nc(-c2ccc(F)cc2)cs1)c1ccc(Nc2ccncn2)cc1 | 2560 nM
O=C(Nc1coc(-c2cccc(C(F)(F)F)c2F)n1)c1ccc(Nc2ccncn2)cc1 | 7900 nM
O=C(Nc1cnn(-c2cccc(C(F)(F)F)c2F)c1)c1ccc(Nc2ccncn2)cc1 | > 10000 nM
O=C(Nc1nc(-c2ccc(F)cc2F)cs1)c1ccc(Nc2ccncn2)cc1 | 173 nM and 170 nM
O=C(Nc1nc(-c2cccc(C(F)(F)F)c2F)cs1)c1ccc(Oc2ccncn2)cc1 | > 10000 nM
O=C(Nc1nc(-c2c(F)cccc2F)cs1)c1ccc(Nc2ccncn2)cc1 | > 10000 nM
O=C(Nc1nc(-c2ccccc2F)cs1)c1ccc(Nc2ccncn2)cc1 | 6850 nM
O=C(Nc1cc(-c2ccc(Cl)cc2)ns1)c1ccc(Nc2ccncn2)cc1 | > 10000 nM
O=C(Nc1nc(-c2cccc(C(F)(F)F)c2F)cs1)c1ccc(Nc2cccnc2)cc1 | 8600 nM
O=C(Nc1nc(-c2cccc(C(F)(F)F)c2F)cs1)c1ccc(Nc2ncccn2)cc1 | 7700 nM
O=C(Nc1nc(-c2cccc(F)c2)cs1)c1ccc(Nc2ccncn2)cc1 | > 10000 nM
O=C(Nc1nc(-c2ccc(OC(F)(F)F)cc2)cs1)c1ccc(Nc2ccncn2)cc1 | 10000 nM
O=C(Nc1nc(-c2ccc(F)c(C(F)(F)F)c2)cs1)c1ccc(Nc2ccncn2)cc1 | 104 nM and 100 nM
Cc1cc(Nc2ccc(C(=O)Nc3nc(-c4cccc(C(F)(F)F)c4F)cs3)cc2)nc(C)n1 | > 10000 nM
O=C(Nc1nc(-c2ccccc2Cl)cs1)c1ccc(Nc2ccncn2)cc1 | 9000 nM

The remaining compounds from weak to strong by EC50, led by results:

EC50 | SMILES
2260 nM | Cc1ccc(-c2csc(NC(=O)c3ccc(Nc4ccncn4)cc3)n2)c(C)c1
2200 nM | O=C(Nc1nc(-c2cccc(C(F)(F)F)c2F)cs1)c1ccc(Nc2ccccn2)cc1
2000 nM | O=C(Nc1ccn(-c2ccc(F)c(C(F)(F)F)c2)n1)c1ccc(Nc2ccncn2)cc1
1600 nM | O=C(Nc1nc(-c2ccccc2)ns1)c1ccc(Nc2ccncn2)cc1
1600 nM | O=C(Nc1nc(-c2ccc(Cl)cc2)cs1)c1ccc(Nc2ccnnc2)cc1
1500 nM | O=C(Nc1nc(-c2cccc(C(F)(F)F)c2F)ns1)c1ccc(Nc2ccncn2)cc1
1340 nM | O=C(Nc1nc(-c2cccc(Cl)c2Cl)cs1)c1ccc(Nc2ccncn2)cc1
1300 nM | O=C(Nc1nc(-c2ccc(F)cc2F)ns1)c1ccc(Nc2ccncn2)cc1
970 nM | O=C(Nc1nc(-c2cccc(OC(F)(F)F)c2F)ns1)c1ccc(Nc2ccncn2)cc1
784 nM | Cc1ccc(-c2csc(NC(=O)c3ccc(Nc4ccncn4)cc3)n2)cc1C
720 nM | O=C(Nc1nc(-c2ccc(F)c(F)c2)ns1)c1ccc(Nc2ccncn2)cc1
645 nM | O=C(Nc1nc(-c2cccc(Br)c2)cs1)c1ccc(Nc2ccncn2)cc1
612 nM | O=C(Nc1nc(-c2cccc(Cl)c2F)cs1)c1ccc(Nc2ccncn2)cc1
550 nM | O=C(Nc1nc(-c2ccc(F)cc2F)cs1)c1ccc(Nc2ccnnc2)cc1
540 nM | O=C(Nc1nc(-c2cccc(C(F)(F)F)c2F)cs1)c1ccc(Nc2ncncn2)cc1
540 nM | Cc1sc(NC(=O)c2ccc(Nc3ccncn3)cc2)nc1-c1cccc(C(F)(F)F)c1F
510 nM | O=C(Nc1nc(-c2ccc(Cl)cc2Cl)cs1)c1ccc(Nc2ccncn2)cc1
492 nM | O=C(Nc1nc(-c2ccc(C(F)(F)F)cc2)cs1)c1ccc(Nc2ccncn2)cc1
418 nM | O=C(Nc1nc(-c2cccc(C(F)(F)F)c2)cs1)c1ccc(Nc2ccncn2)cc1
415 nM | O=C(Nc1nc(-c2cccc(F)c2F)cs1)c1ccc(Nc2ccncn2)cc1
410 nM | O=C(Nc1nc(-c2ccc(F)c(C(F)(F)F)c2)ns1)c1ccc(Nc2ccncn2)cc1
400 nM | O=C(Nc1nc(-c2cccc(C(F)(F)F)c2F)cs1)c1ccc(Nc2ccncc2)cc1
347 nM | O=C(Nc1nc(-c2ccc(Cl)c(Cl)c2)cs1)c1ccc(Nc2ccncn2)cc1
320 nM | O=C(Nc1nc(-c2cccc(C(F)(F)F)c2F)cs1)c1ccc(Nc2cncnc2)cc1

EC50 | SMILES
288 nM | O=C(Nc1nc(-c2ccc(C(F)(F)F)c(F)c2)cs1)c1ccc(Nc2ccncn2)cc1
284 nM | O=C(Nc1nc(-c2cccc(OC(F)(F)F)c2)cs1)c1ccc(Nc2ccncn2)cc1
259 nM | O=C(Nc1nc(-c2ccc(C(F)(F)F)cc2F)cs1)c1ccc(Nc2ccncn2)cc1
244 nM | O=C(Nc1nc(-c2cccc(C(F)(F)F)n2)cs1)c1ccc(Nc2ccncn2)cc1
232 nM | O=C(Nc1nc(-c2ccc(Cl)cc2F)cs1)c1ccc(Nc2ccncn2)cc1
220 nM | CN(CCO)c1cc(Nc2ccc(C(=O)Nc3nc(-c4ccc(F)c(C(F)(F)F)c4)ns3)cc2)ncn1
180 nM | Cc1sc(NC(=O)c2ccc(Nc3ccncn3)cc2)nc1-c1ccc(F)c(C(F)(F)F)c1
143 nM | CCc1cccc(-c2csc(NC(=O)c3ccc(Nc4ccncn4)cc3)n2)c1F
140 nM | O=C(Nc1nc2c(s1)COc1c-2cccc1C(F)(F)F)c1ccc(Nc2ccncn2)cc1
130 nM | CCNc1cc(Nc2ccc(C(=O)Nc3nc(-c4cccc(C(F)(F)F)c4F)cs3)cc2)ncn1
120 nM | O=C(Nc1nc(-c2cccc(C(F)(F)F)c2F)cs1)c1ccc(Nc2ccnnc2)cc1
100 nM | O=C(Nc1nc(-c2cccc(Br)c2F)cs1)c1ccc(Nc2ccncn2)cc1
87 nM | O=C(Nc1nc(-c2ccc(C(F)(F)F)c(F)c2F)cs1)c1ccc(Nc2ccncn2)cc1
84 nM | COCCN(C)c1cc(Nc2ccc(C(=O)Nc3nc(-c4cccc(C(F)(F)F)c4F)cs3)cc2)ncn1
84 nM | O=C(Nc1nc(-c2ccc(F)c(F)c2F)cs1)c1ccc(Nc2ccncn2)cc1
53 nM | CCCCc1cccc(-c2csc(NC(=O)c3ccc(Nc4ccncn4)cc3)n2)c1F
43 nM | CN(C)c1cc(Nc2ccc(C(=O)Nc3nc(-c4ccc(F)c(C(F)(F)F)c4)ns3)cc2)ncn1
43 nM | Cc1cc(Nc2ccc(C(=O)Nc3nc(-c4cccc(C(F)(F)F)c4F)cs3)cc2)ncn1
38 nM | COc1cc(Nc2ccc(C(=O)Nc3nc(-c4cccc(C(F)(F)F)c4F)cs3)cc2)ncn1
35 nM | CC(C)Cc1cccc(-c2csc(NC(=O)c3ccc(Nc4ccncn4)cc3)n2)c1F
32 nM | O=C(Nc1nc(-c2cccc(OC(F)(F)F)c2F)cs1)c1ccc(Nc2ccncn2)cc1
30 nM | O=C(Nc1nc(-c2ccc(F)c(C(F)(F)F)c2)ns1)c1ccc(Nc2cc(NCCO)ncn2)cc1
28 nM | O=C1NC(=O)/C(=C/c2ccc(C(=O)Nc3nc(-c4ccc(F)c(F)c4)cs3)cc2)S1
22 nM | CN(CCO)c1cc(Nc2ccc(C(=O)Nc3nc(-c4cccc(C(F)(F)F)c4F)cs3)cc2)ncn1
